Measured values published in patent publication US10160747B2, “Compounds and methods for kinase modulation, and indications therefor” (Plexxikon Inc., priority 2016, dated 2018).

How the values were obtained:
FLT3-D835Y = biological target: T1, FLT3-D835Y (Homo sapiens, UniProt P36888, D835Y); experiment: FLT3-D835Y recombinant enzyme kinase assay (AlphaScreen); assay type: biochemical; details: 8 pt, GMean
T1 construct: purchased Invitrogen PV3967
T1 sequence (P36888 27-993 D835Y): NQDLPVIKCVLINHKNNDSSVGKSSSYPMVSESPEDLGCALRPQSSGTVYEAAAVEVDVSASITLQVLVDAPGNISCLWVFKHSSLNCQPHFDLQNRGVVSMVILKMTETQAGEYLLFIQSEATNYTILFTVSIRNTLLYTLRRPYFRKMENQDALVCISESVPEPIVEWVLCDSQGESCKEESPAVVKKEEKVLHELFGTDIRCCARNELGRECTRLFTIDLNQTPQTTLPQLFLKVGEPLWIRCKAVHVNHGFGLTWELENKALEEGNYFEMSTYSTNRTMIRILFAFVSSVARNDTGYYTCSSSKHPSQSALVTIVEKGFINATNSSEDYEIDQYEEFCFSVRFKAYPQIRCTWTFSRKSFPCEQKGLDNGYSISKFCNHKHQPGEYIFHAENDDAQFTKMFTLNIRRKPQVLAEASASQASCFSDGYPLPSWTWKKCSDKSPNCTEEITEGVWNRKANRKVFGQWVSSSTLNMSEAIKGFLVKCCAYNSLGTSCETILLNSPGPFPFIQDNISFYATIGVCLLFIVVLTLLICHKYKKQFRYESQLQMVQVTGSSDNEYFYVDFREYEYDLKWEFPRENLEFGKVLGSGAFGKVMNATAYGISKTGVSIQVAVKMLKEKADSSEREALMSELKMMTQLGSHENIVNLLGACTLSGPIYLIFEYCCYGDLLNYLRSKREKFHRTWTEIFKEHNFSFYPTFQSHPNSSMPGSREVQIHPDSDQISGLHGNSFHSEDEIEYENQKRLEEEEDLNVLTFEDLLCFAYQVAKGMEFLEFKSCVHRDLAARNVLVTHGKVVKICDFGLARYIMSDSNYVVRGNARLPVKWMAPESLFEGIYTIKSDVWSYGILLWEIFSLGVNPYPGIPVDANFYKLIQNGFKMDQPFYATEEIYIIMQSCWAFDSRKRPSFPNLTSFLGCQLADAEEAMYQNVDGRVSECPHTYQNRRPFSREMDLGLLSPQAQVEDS
Procedure, shortened: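 Kinase activity of recombinant FLT3-ITD, FLT3-D835Y and c-KIT was followed via phosphotyrosine formation on a 30 nM biotin-peptide substrate, captured on streptavidin donor and anti-phosphotyrosine acceptor AlphaScreen beads. ATP was set at 10 μM for FLT3 and 100 μM for c-KIT.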

CSF1R = CSF1R (Homo sapiens, UniProt P07333); experiment: CSF1R 100 ATP 8 pt kinase assay (Table 6); assay type: biochemical
Description: The following Table 6 provides data indicating FLT3 ITD, D835Y and F691L; c-KIT and CSF1R biochemical and/or cell inhibitory activity for exemplary compounds as described herein.

Sequence of CSF1R (P07333 20-972, species assumed): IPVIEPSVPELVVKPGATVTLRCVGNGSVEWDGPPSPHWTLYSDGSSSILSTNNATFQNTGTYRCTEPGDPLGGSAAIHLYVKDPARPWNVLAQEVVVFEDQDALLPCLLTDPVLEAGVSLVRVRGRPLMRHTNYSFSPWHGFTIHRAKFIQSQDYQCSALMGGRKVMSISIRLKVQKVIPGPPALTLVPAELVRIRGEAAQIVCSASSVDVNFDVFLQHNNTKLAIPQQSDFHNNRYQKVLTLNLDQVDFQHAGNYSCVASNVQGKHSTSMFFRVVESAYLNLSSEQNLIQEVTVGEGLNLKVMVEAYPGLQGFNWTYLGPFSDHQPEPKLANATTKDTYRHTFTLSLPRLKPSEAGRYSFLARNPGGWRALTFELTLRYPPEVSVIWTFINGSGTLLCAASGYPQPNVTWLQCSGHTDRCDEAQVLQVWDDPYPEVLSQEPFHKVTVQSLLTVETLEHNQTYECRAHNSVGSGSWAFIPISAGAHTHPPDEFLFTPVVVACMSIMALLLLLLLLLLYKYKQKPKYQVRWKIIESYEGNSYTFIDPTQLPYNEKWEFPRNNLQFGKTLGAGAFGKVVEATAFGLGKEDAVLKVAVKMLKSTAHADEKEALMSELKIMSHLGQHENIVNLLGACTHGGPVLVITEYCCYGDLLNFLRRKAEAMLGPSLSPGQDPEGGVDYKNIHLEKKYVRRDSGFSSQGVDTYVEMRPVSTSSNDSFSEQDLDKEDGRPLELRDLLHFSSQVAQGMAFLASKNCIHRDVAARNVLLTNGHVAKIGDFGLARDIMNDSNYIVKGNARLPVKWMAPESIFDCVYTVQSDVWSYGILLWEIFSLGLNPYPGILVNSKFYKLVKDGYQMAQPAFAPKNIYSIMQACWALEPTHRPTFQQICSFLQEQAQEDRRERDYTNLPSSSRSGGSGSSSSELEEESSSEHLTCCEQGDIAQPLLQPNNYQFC

SMILES | IC50 (FLT3-D835Y) | IC50 (CSF1R)
CCOc1n[nH]c2ncc(-c3ccc(CC(=O)Nc4cnc(C)c(C(F)(F)F)c4)cc3)cc12 [Compound P-0217, 2-[4-(3-ethoxy-1H-pyrazolo[3,4-b]pyridin-5-yl)phenyl]-N-[6-methyl-5-(trifluoromethyl)-3-pyridyl]acetamide] | 0.0001 to 10 µM | 0.0001 to 10 µM
COc1n[nH]c2ncc(-c3ccc(CC(=O)Nc4cnc(C)c(C(F)(F)F)c4)cc3)cc12 [Compound P-0218, 2-[4-(3-methoxy-1H-pyrazolo[3,4-b]pyridin-5-yl)phenyl]-N-[6-methyl-5-(trifluoromethyl)-3-pyridyl]acetamide] | 0.0001 to 10 µM | 0.0001 to 10 µM
Cc1ncc(NC(=O)Cc2ccc(-c3cnc4[nH]c(C#CC(C)(C)O)cc4c3)cc2)cc1C(F)(F)F [Compound P-0220, 2-[4-[2-(3-hydroxy-3-methyl-but-1-ynyl)-1H-pyrrolo[2,3-b]pyridin-5-yl]phenyl]-N-[6-methyl-5-(trifluoromethyl)-3-pyridyl]acetamide] | 0.0001 to 10 µM | 0.0001 to 10 µM

Other lines, results leading:

IC50 (FLT3-D835Y) | IC50 (CSF1R) | SMILES
0.0001 to 10 µM | 0.0001 to 10 µM | COc1ncc(NC(=O)Cc2ccc(-c3cnc4[nH]nc(N)c4c3)cc2)cc1C(F)(F)F [Compound P-0216, 2-(4-(3-amino-1H-pyrazolo[3,4-b]pyridin-5-yl)phenyl)-N-(6-methoxy-5-(trifluoromethyl)pyridin-3-yl)acetamide]
0.0001 to 10 µM | 0.0001 to 10 µM | COc1ncc(NC(=O)Cc2ccc(-c3cnc4[nH]nc(Cl)c4c3)cc2)cc1C(F)(F)F [Compound P-0230, 2-[4-(3-chloro-1H-pyrazolo[3,4-b]pyridin-5-yl)phenyl]-N-[6-methoxy-5-(trifluoromethyl)-3-pyridyl]acetamide]
